Data set [1] is described as follows: Pharmacokinetics following single administration in SD rats. The conditions noted are these: male, Sprague-Dawley, rat, in vivo, sc. In outline:
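Male SD rats (230-268 g, n=3) dosed once at 50.0 nmol/kg s.c. or 25.0 nmol/kg i.v. Plasma proteins precipitated with acetonitrile containing internal standards; drug levels quantified by LC-MS/MS.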

The target in a further data set is T1, human GIP Receptor (Homo sapiens, UniProt P48546).
T1 construct: expressed in transfected cells
T1 sequence (P48546 22-466): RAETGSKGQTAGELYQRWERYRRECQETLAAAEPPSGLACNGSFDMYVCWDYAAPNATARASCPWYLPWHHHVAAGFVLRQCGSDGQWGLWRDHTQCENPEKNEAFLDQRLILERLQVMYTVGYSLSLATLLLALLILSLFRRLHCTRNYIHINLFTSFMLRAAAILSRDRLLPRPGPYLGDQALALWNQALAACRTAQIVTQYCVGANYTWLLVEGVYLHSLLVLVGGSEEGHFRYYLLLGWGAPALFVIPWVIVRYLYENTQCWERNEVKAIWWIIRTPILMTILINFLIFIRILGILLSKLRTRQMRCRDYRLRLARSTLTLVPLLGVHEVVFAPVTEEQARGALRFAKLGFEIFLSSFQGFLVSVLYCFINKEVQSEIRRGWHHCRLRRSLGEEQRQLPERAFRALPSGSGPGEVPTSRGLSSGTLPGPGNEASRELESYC
Nature of the data set: In vitro binding activity to human GIP receptor ([125I]GIP displacement, crude cell membranes). As to conditions: ratio of the Ki value of the endogenous ligand to the Ki value of the test compound; larger ratio = stronger binding. As to the method: 89 µL of membrane dissolved in binding buffer (50 mM Hepes, pH 7.4, 5 mM MgCl2 , 5 mM EDTA, 0.005% TWEEN, 0.005% HSA) was transferred to a 96-well test plate (5 µg/well). The compound was serially diluted in DMSO, and then, 1 µL of the diluted compound or 100% DMSO was added to the test plate containing the membrane solution. 10 µL of [^125I] […] The test plate was left at room temperature for 90 minutes. The membrane complexes were harvested into a GF/B plate pre-coated with 0.5% PEI by using a Cell Harvester, and washed for 3 times with 500 µL of pre-cooled elution buffer (50 mM Hepes, pH 7.4, 500 mM NaCl) at 4°C. After drying at 37°C for 2 hours, 50 µL of scintillation fluid was added to each well. The plate was read with a MicroBeta2 scintillation counter after sealing and settling for at least 1 hour so as to determine the membrane bound radioligand level.
hGIP and the compound of the present invention were dissolved in DMSO and stored at -80°C. 98 µL of membrane dissolved in binding buffer (50 mM HEPES pH 7.4, 5 mM MgCl2, 1 mM CaCl2, 0.1% BSA, 0.005% Tween-20) was transferred to a 96-well test plate (15 µg/well). The compound was serially diluted in DMSO, and then, 2 µL of the diluted compounds or 100% DMSO was added to the test plate containing the membrane solution. […] The test plate was left at room temperature for 90 minutes. The membrane complexes were harvested into a GF/B plate pre-coated with 0.5% PEI by using a Cell Harvester, and washed for 3 times with 500 µL of pre-cooled elution buffer (50 mM Tris-HCl pH 7.4, 125 mM NaCl) at 4°C. After drying at 37°C for 2 hours, 50 µL of scintillation fluid was added to each well. The plate was read with a MicroBeta2 scintillation counter after sealing and settling for at least 1 hour so as to determine the membrane bound radioligand level.
The IC50 concentration was converted to Ki (Ki was the inhibition constant) using the Cheng-Prusoff equation. Table 1. Receptor Binding Affinity, Ki Ratio

The next data set concerns db/db mice. Nature of the data set: Pharmacodynamic effects in db/db mice, single subcutaneous administration (blood glucose). The class given is in vivo. The conditions noted are these: single s.c. 10 nmol/kg. The method in brief: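 Male db/db mice aged 8-9 weeks, fed ad libitum, were grouped by initial glucose and body weight (n=6) and dosed once subcutaneously. Random blood glucose from tail tip was tracked over 0 to 120 hours against vehicle. Hypoglycemic duration is the longest time with a significant difference from vehicle (T-test, p<0.05).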

By Tmax is commonly meant the time at which the peak concentration occurs. One may read the half-life as the time needed for the level to fall by half in the phase considered. With `CC[C@H](C)[C@H](NC(=O)C(C)(C)NC(=O)[C@H](Cc1ccc(O)cc1)NC(=O)[C@H](CC(=O)O)NC(=O)[C@H](CO)NC(=O)[C@@H](NC(=O)C(C)(Cc1ccccc1)NC(=O)[C@@H](NC(=O)CNC(=O)[C@H](CCC(=O)O)NC(=O)C(C)(C)NC(=O)[C@@H](N)Cc1ccc(O)cc1)[C@@H](C)O)[C@@H](C)O)C(=O)NC(C)(C)C(=O)N[C@@H](CC(C)C)C(=O)N[C@@H](CC(=O)O)C(=O)N[C@@H](CCCCN)C(=O)N[C@@H](CCC(N)=O)C(=O)N[C@@H](C)C(=O)N[C@@H](CCC(N)=O)C(=O)N[C@@H](C)C(=O)N[C@@H](CCC(=O)O)C(=O)N[C@@H](Cc1ccccc1)C(=O)N[C@H](C(=O)N[C@@H](CCCCNC(=O)COCCOCCNC(=O)COCCOCCNC(=O)CC[C@H](NC(=O)CCCCCCCCCCCCCCCCCCCCC(=O)O)C(=O)O)C(=O)N[C@@H](Cc1c[nH]c2ccccc12)C(=O)N[C@@H](CC(C)C)C(=O)N[C@@H](CC(C)C)C(=O)N[C@@H](CCCCN)C(=O)NCC(=O)NCC(=O)N1CCC[C@H]1C(=O)N[C@@H](CO)C(=O)N[C@@H](CO)C(=O)NCC(=O)N[C@@H](C)C(=O)N1CCC[C@H]1C(=O)N1CCC[C@H]1C(=O)N1CCC[C@H]1C(=O)N[C@@H](CO)C(=O)N[C@@H](CCCCN)C(N)=O)C(C)C` (stereo partly shown) [Compound P014], in data set [1], the Tmax was 24 h and the half-life was 14.8 ± 0.503 h. Moreover, the “GIPR Ki ratio” value at human GIP Receptor was determined as 0.08. Moreover, in the data set on db/db mice, the “inhibition of the blood glucose AUC, times of that of P001” value is recorded as 2.6 times and the “inhibition of the blood glucose AUC, times of that of Tirzepatide” value amounted to 1.7 times. Also, in the data set with db/db mice (Group 1, longest time with p<0.05 vs. vehicle), the “Hypoglycemic Duration” value came to 104 h.
`CC[C@H](C)[C@H](NC(=O)C(C)(C)NC(=O)[C@H](Cc1ccc(O)cc1)NC(=O)[C@H](CC(=O)O)NC(=O)[C@H](CO)NC(=O)[C@@H](NC(=O)C(C)(Cc1ccccc1)NC(=O)[C@@H](NC(=O)CNC(=O)[C@H](CCC(=O)O)NC(=O)C(C)(C)NC(=O)[C@@H](N)Cc1ccc(O)cc1)[C@@H](C)O)[C@@H](C)O)C(=O)NC(C)(C)C(=O)N[C@@H](CC(C)C)C(=O)N[C@@H](CC(=O)O)C(=O)N[C@@H](CCCCN)C(=O)N[C@@H](CCC(N)=O)C(=O)N[C@@H](C)C(=O)N[C@@H](CCC(N)=O)C(=O)N[C@@H](C)C(=O)N[C@@H](CCC(=O)O)C(=O)N[C@@H](Cc1ccccc1)C(=O)N[C@H](C(=O)N[C@@H](CCCCN)C(=O)N[C@@H](Cc1c[nH]c2ccccc12)C(=O)N[C@@H](CC(C)C)C(=O)N[C@@H](CC(C)C)C(=O)N[C@@H](CCCCNC(=O)COCCOCCNC(=O)COCCOCCNC(=O)CC[C@H](NC(=O)CCCCCCCCCCCCCCCCCCCCC(=O)O)C(=O)O)C(=O)NCC(=O)NCC(=O)N1CCC[C@H]1C(=O)N[C@@H](CO)C(=O)N[C@@H](CO)C(=O)NCC(=O)N[C@@H](C)C(=O)N1CCC[C@H]1C(=O)N1CCC[C@H]1C(=O)N1CCC[C@H]1C(=O)N[C@@H](CO)C(=O)N[C@@H](CCCCN)C(N)=O)C(C)C` (stereo partly shown) [Compound P017]: in data set [1], the Tmax came out at 24 h and the half-life is 18.7 ± 2.69 h. Further, the “GIPR Ki ratio” value at human GIP Receptor was found to be 0.04. In the data set on db/db mice (Group 2, longest time with p<0.05 vs. vehicle), the “Hypoglycemic Duration” value is on record as 72 h.

These data come from patent publication EP4813403A1, “USE OF GLP-1R/GIPR DOUBLE-TARGET AGONIST IN PREPARING ANIMAL DRUG” (Hangzhou Zhongmeihuadong Pharmaceutical Co., Ltd., priority 2023, dated 2025).
